Source: patent US11498933B2, “Prodrug compositions” (The University of Liverpool, priority 2017, dated 2022)

How the values were obtained:
[1] = Half-life of emtricitabine amidine prodrug in phosphate buffer; format: physicochemical; conditions: Phosphate Buffer (100 mM, pH 7.4), 37° C.
Method: (§1) To evaluate the hydrolysis rates of emtricitabine amidine prodrugs, HPLC coupled with UV detection was used with the following method (0% to 100% acetonitrile in Et3NHOAc (50 mM, pH 8) gradient) over 10 minutes at a flow rate of 3 mL min^−1, held at 100% acetonitrile for 3 minutes, ramped down to 5% acetonitrile over 0.2 minutes and then held for 2.8 minutes. Normal human serum (Bioreclamation) or phosphate buffer (100 mM, pH 7.4) was pre-incubated at 37° C. for 5 minutes. Emtricitabine amidine compound 23 (1 mM) was then added and the reaction mixture was incubated at 37° C. […] The supernatant was injected onto a HPLC system for analysis, the resulting data can be seen illustrated in FIG. 13.

[2] = Half-life of emtricitabine amidine prodrug in human serum; format: in vitro ADME; conditions: normal human serum, 37° C.
Method: as §1

[3] = Kinetic analysis via UV in mixed pooled gender liver S9 (10.0 mg/mL); format: in vitro ADME, human
Method: Reaction mixtures containing Tris buffer (30 mM, pH 7.4) and mixed pooled gender liver S9 (10.0 mg/mL) were pre-incubated at 37° C. for 5 min. […] After incubation at 37° C., aliquots were taken at each time point and quenched in two volumes of ice-cold methanol. The quenched aliquots were then centrifuged at 14000 rpm for 5 minutes. The supernatant was diluted into Tris buffer (30 mM, pH 7.4) to yield concentrations appropriate for analysis and read spectrophotometrically monitoring a decrease in substrate at 305 nm.
A reaction mixture containing Tris buffer (30 mM, pH 7.4) and mixed pooled gender liver S9 (10.0 mg/mL) was pre-incubated at 37° C. for 5 minutes. The reaction was then initiated by the addition of emtricitabine trimethyl lock compound 25 (concentration of compound 25 ranging from 100 μM to 8 mM). After incubation at 37° C., aliquots were taken at each time point and quenched in two volumes of ice-cold methanol. The quenched aliquots were then centrifuged at 14000 rpm for 5 minutes. The supernatant was diluted into Tris buffer (30 mM, pH 7.4) to yield samples having concentrations appropriate for analysis and read spectrophotometrically monitoring a decrease in substrate at 312 nm.

[4] = Half-life measurements in human plasma (HPLC-UV); format: in vitro ADME; conditions: Human plasma, 37° C., read-out: Half-Life (converted)
Method: (§2) To evaluate the hydrolysis rates of emtricitabine compounds 9-16, HPLC coupled with UV detection was used with the following method (0% to 100% acetonitrile in Et3NHOAc (50 mM, pH 8) gradient) over 10 minutes at a flow rate of 3 mL min^−1, held at 100% acetonitrile for 3 minutes, ramped down to 5% acetonitrile over 0.2 minutes and then held for 2.8 minutes. Male human plasma (Bioreclamation) or female human skeletal muscle S9 (7.96 mg/mL, Bioreclamation) was pre-incubated at 37° C. for 5 minutes. Compounds 9-16 (1 mM) were added and the reaction was incubated at 37° C. […] The supernatant was diluted 10 fold into Tris buffer (30 mM, pH 7.4) and injected onto the HPLC for analysis.
To evaluate the hydrolysis rates of emtricitabine trimethyl lock prodrugs, HPLC coupled with UV detection was used with the following method (0% to 100% acetonitrile in Et3NHOAc (50 mM, pH 8) gradient) over 10 minutes at a flow rate of 3 mL min^−1, held at 100% acetonitrile for 3 minutes, ramped down to 5% acetonitrile over 0.2 minutes and then held for 2.8 minutes. Human plasma (Bioreclamation) or human skeletal muscle S9 (7.96 mg/mL, Bioreclamation) was pre-incubated at 37° C. for 5 minutes. Emtricitabine trimethyl lock compound 25 (1 mM) was added and the reaction was incubated at 37° C. […] The supernatant was diluted in Tris buffer (100 mM, pH 7.4) and injected onto the HPLC for analysis. […]

[5] = Half-life measurements in human skeletal muscle S9; format: in vitro ADME; conditions: Human muscle S9 (7.96 mg/mL), 37° C.
Method: as §2
To evaluate the hydrolysis rates of emtricitabine trimethyl lock prodrugs, HPLC coupled with UV detection was used with the following method (0% to 100% acetonitrile in Et3NHOAc (50 mM, pH 8) gradient) over 10 minutes at a flow rate of 3 mL min^−1, held at 100% acetonitrile for 3 minutes, ramped down to 5% acetonitrile over 0.2 minutes and then held for 2.8 minutes. Human plasma (Bioreclamation) or human skeletal muscle S9 (7.96 mg/mL, Bioreclamation) was pre-incubated at 37° C. for 5 minutes. Emtricitabine trimethyl lock compound 25 (1 mM) was added and the reaction was incubated at 37° C. […] The supernatant was diluted in Tris buffer (100 mM, pH 7.4) and injected onto the HPLC for analysis.

[6] = Kinetic analysis of trimethyl lock prodrug in mouse liver S9 via UV; format: in vitro ADME; conditions: mouse liver S9 1.0 mg/mL
Method: The reaction is then initiated by the addition of emtricitabine trimethyl lock compound 25 (concentration of compound 25 ranging from 600 μM to 6 mM). […] The supernatant was diluted into Tris buffer (30 mM, pH 7.4) to yield concentrations appropriate for analysis and read spectrophotometrically monitoring a decrease in substrate at 312 nm.

CD4+ T cells = assay: Viability staining (Zombie Red) in single-round infectivity assay
Method: Peripheral blood mononuclear cells were isolated from healthy blood donors using Hypaque-Ficoll gradient centrifugation. CD4+ T cells were selected by magnetic beads (Miltenyi) and activated using anti-CD3 and anti-CD28 antibodies. Activated cells were seeded onto a 96-well plate at a concentration of 1×10^5 cells/well in RPMI1640 supplemented with 10% FBS, cytokine-rich supernatant, and 50% heat-inactivated human serum. Test compounds were added at this step and maintained throughout the culture. Cells were incubated at 37° C. for 21 hours. Pseudotype (GFP-tagged) HIV was then added to the culture via spinoculation and incubated for 3 days. Cells were then washed and stained with Zombie Red viability stain. Infectivity was quantified using flow cytometry.

[7] = Stability in single-round infectivity assay well media; format: in vitro ADME; conditions: RPMI1640, 10% FBS, 50% heat-inactivated human serum, 37° C.
Method: Well media used in the single-round infectivity assays as described above, comprised of RPMI1640 medium supplemented with 10% FBS, cytokine-rich supernatant, 50% heat-inactivated human serum and HEPES buffer (12 mM). The emtricitabine test compounds were incubated in well media at 37° C. At various time points, aliquots were quenched in two volumes of ice-cold methanol. Quenched mixtures were then centrifuged at 14000 rpm for 5 minutes. The supernatant was diluted 10-fold into Tris buffer (30 mM, pH 7.4) and then analyzed via HPLC coupled with UV detection.
Stability studies indicate that both compounds 16 and 25 were hydrolyzed to the parent emtricitabine in a time-frame matching the time of pre-incubation in single-round infectivity assays. This is likely due to the presence of heat-inactivated serum still containing active esterases.

[8] = Prodrug hydrolysis in mouse liver S9; format: in vitro ADME; conditions: 1 mM, compared with human liver S9
Method: (§3) Reaction mixtures containing either mouse liver S9 (20.8 mg/mL), mouse plasma, rat liver S9 (1 mg/mL) and phosphate buffer (100 mM, pH 7.4), rat plasma, human liver S9 (1.0 mg/mL) and phosphate buffer (100 mM, pH 7.4) or human plasma were pre-incubated at 37° C. for 5 minutes. Reactions were then initiated by addition of compounds 4, 8 or 16 (1 mM in mouse, 0.5 mM in rat and human). After incubation at 37° C., aliquots are taken at each time point and quenched in two volumes of ice-cold methanol. The quenched aliquots were then centrifuged at 14000 rpm for 5 minutes. The supernatant was then diluted into phosphate buffer (30 mM, pH 7.4) to yield samples with concentrations suitable for analysis.

[9] = Prodrug hydrolysis in mouse plasma; format: in vitro ADME; conditions: 1 mM, compared with human plasma
Method: as §3

SMILES	half-life at 1 mM [1]	half-life at 1 mM [2]	Intrinsic Clearance [3]	Vmax [3]	Km ([3]; both sexes, human, pooled liver S9, pH 7.4, 100 μM to 8 mM, 312 nm)	half-life at 1 mM [4]	half-life at 1 mM [5]	Km ([6]; both sexes, pooled mouse liver S9, pH 7.4, 600 μM to 6 mM)	Intrinsic Clearance [6]	Vmax [6]	toxicity on CD4+ T cells (viability staining) (CD4+ T cells)	half-life [7]	hydrolysis rate in mouse liver S9 [8]	hydrolysis rate in mouse plasma [9]
CN(C)/C=N\c1nc(=O)n([C@@H]2CS[C@H](CO)O2)cc1F [Compound 23, (Z)—N′-(5-fluoro-1-((2R,5S)-2-(hydroxymethyl)-1,3-oxathiolan-5-yl)-2-oxo-1,2-dihydropyrimidin-4-yl)-N,N-dimethylformimidamide]	95 h	5.8 h	–	–	–	–	–	–	–	–	–	–	–	–
CC(=O)Oc1cc(C)cc(C)c1C(C)(C)CC(=O)Nc1nc(=O)n([C@@H]2CS[C@H](CO)O2)cc1F [Compound 25, 2-(4-((5-fluoro-1-((2R,5S)-2-(hydroxymethyl)-1,3-oxathiolan-5-yl)-2-oxo-1,2-dihydropyrimidin-4-yl)amino)-2-methyl-4-oxobutan-2-yl)-3,5-dimethylphenyl acetate]	–	–	11.5 µL/min/mg	1659 nmol/h/mg	2400 µM	0.4 h	1 h	1600 µM	138.3 µL/min/mg	13200 nmol/h/mg	little to no toxicity	0.83 h	–	–
CCCCCCCCOC(=O)Nc1nc(=O)n([C@@H]2CS[C@H](CO)O2)cc1F [Compound 16, octyl (5-fluoro-1-((2R,5S)-2-(hydroxymethyl)-1,3-oxathiolan-5-yl)-2-oxo-1,2-dihydropyrimidin-4-yl)carbamate]	–	–	–	–	–	–	–	–	–	–	little to no toxicity	18 h	comparable in mouse and human liver S9	dramatically enhanced relative to human plasma
